Data reported in US6083920A, “Compositions for modulating intracellular inositol trisphosphate concentration” (priority 1996, dated 2000).
pIC50: −log10 of the molar value.

Assays:
[1] = test system: phospholipase C isoforms beta, delta, and gamma; settings: for diminution in Vmax / increase in calcium ion concentration required for optimal activity: 10 μM lysocerebroside or 5 μM lysosphingomyelin; for effect on KM for substrate phosphatidylinositol bis-phosphate: 10 μM lysocerebroside, 5 μM lysosphingomyelin
Description: The effects of sphingosine, lysocerebroside, and lysosphingomyelin on the kinetics of pure, immunologically isolated phospholipase C isoforms beta, delta, and gamma (which are commercially available) was examined. For each isoform, 10 μM sphingosine was added to a reaction medium consisting of 1 μg phospholipase C isoform/ml, Tris-malate buffer (50 mM, pH 7.0) containing 100 μM phosphatidyl inositol bis-phosphate tri-ammonium salt, 0.01 μCi tritium labeled phosphatidyl inositol bis-phosphate, 100 mM NaCl, 10 mM CaCl2, and 5 mM 2-merceptoethanol.

[2] = test system: bradykinin-stimulated phosphoinositide signalling in PC12 cells; assay: Phosphoinositide hydrolysis assay (InsP3 production) in PC12 cells; type: cell-based, rat; settings: for sensitivity of PC12 cells to bradykinin: at relatively moderate levels
Excerpt: PC12 cells, from a rat adrenal pheochromocytoma cell line, were used as a model of neurons from the peripheral nervous system. These cells were obtained from a common laboratory cell culture stock and grown in plastic culture flasks in Dulbecco's modified Eagle's medium (DMEM) supplemented with 5% heat-inactivated horse serum and 10% heat-inactivated fetal calf serum (PC12 cells are also available from the American Type Culture Collection under the Accession number CRL 1721). The cells were grown at 37° C. in 5% CO2 in air until a confluent monolayer formed. The cells were dispersed into 24-well plastic tissue culture plates at a density of 10^5 cells per well and used for the phosphoinositide hydrolysis assays (as described in EXAMPLE 2).
Receptor-stimulated and basal unstimulated hydrolysis of phosphoinositides was measured by the following procedure. In order to label the cellular phosphoinositides metabolically, the primary cultures of chick cortical neurons (described in Example 1) were incubated overnight with 0.5 ml Dulbecco's modified Eagle's medium containing 1 μCi [^3 H]myo-inositol per well. The cells were then washed twice with 1 ml Dulbecco's phosphate-buffered saline (PBS) and 0.5 ml of PBS containing 4.5 g/L glucose was added. Sphingosine, psychosine, lysosulphatide, or lysosphingomyelin, prepared as the hydrochloride salt dissolved in water, were then added to produce the desired extracellular concentration in specific wells, and the 24-well plates were swirled gently on a rotary shaker for 1 hr at 23° C. The cells were then washed twice with 1 ml PBS, and pre-incubated for 15 minutes at 37° C. with 0.5 ml PBS containing 10 mM LiCl and the compound to be tested was added. After 30 minutes, the experiment was terminated by adding 1 ml of ice-cold methanol to each well and transferring the material in each well to polypropylene tubes that contained 0.4 ml water and 1 ml chloroform. The tubes were vortexed thoroughly, then centrifuged at 500×g for 5 minutes to separate the aqueous and chloroform phases. For each sample, a 1.5-ml aliquot of the upper (aqueous) phase was applied to a small column containing BioRad AG1X8 resin (formate form). Free [^3 H]inositol and [^3 H]glycerophosphoinositol were washed through the column with 5 ml of a solution containing 5 mM sodium borate and 60 mM sodium formate. The total phosphorylated [^3 H] inositol fraction was eluted from the column for radiometric scintillation spectrometry analysis with 3 ml 1.0 M ammonium formate/0.1 M formic acid;
In addition, a 0.5 ml aliquot of the lower (chloroform) phase of each sample was analyzed radiometrically by scintillation spectrometry in order to determine the quantity of lipid-bound [^3 H]myo-inositol. Estimation of phosphoinositide hydrolysis by phospholipase C is based upon the quantity of [^3 H]inositol phosphates produced, and is expressed as the percentage of the latter relative to total free and componential [^3 H]inositol (dpm ammonium formate+dpm chloroform fractions).
PC12 cells display a strong phospholipase C-linked metabotropic receptor response to bradykinin, an effective pain producing agonist.
The degree of InsP3 inhibition is a function of the log of the psychosine concentration for a fixed time of exposure (FIG. 4). Exposing PC12 cells to 50 μM exogenous psychosine for 30 minutes was sufficient to reduce a metabotropic response to 10 μM bradykinin to half maximum.

[3] = Lysosphingolipid loading of isolated neuronal plasma membrane; type: in vitro ADME, chick; settings: Plasma Membrane Suspension, 10 μmolar exposure
Excerpt: Total lipids were removed from the neuron samples by repeated extraction with chloroforn:methanol (2:1, vol:vol). […] The recovered lysosphingolipids were stably tagged with NBDZF by the rapid procedure of Nozowa et al. (supra). The fluorescence tagged neuronal lysosphingolipids were separated in parallel with reference standards NBDZF-Sph, NBDZF-Psy, and NBDZF-Lsm on high performance silica gel thin layer chromatography plates with acetonitrile:H2 O (10:0.5, vol:vol). The highly fluorescent, well separated bands were scraped from the plate. The fluorescence tagged lysosphingolipids are eluted from the scraped silica gel with methanol:1 N HCl (1:0.02, vol:vol). The fluorescence tagged lysosphingolipid eluates were quantitated against reference standards by fluorescence measurement in a Perkin-Elmer LS-5 Fluorescence Spectrometer.
Physiologically active phospholipase C is present on the endofacial portion of the plasma membrane. A procedure for examining its activity in an intact membrane is provided. […] One hundred Petri dishes of cultured cortical neurons were incubated overnight with 50 μCi [^3 H]myo-inositol per mL of culture medium. […] The collected neurons were homogenized in 5 mL 0.32 M sucrose and centrifuged at 1000×g for 15 minutes. The supernatant was layered on top of 2 ml 1.2 M sucrose and centrifuged at 300,000×g for 20 minutes. The sedimented pellet was resuspended by sonication for 10 seconds in 50 mM Tris buffer (pH 7.4), containing 0.3 μM CaCl2, 1 mM MgCl2, and 0.01% ascorbic acid.
The suspended plasma membrane preparation was apportioned into 250 μl samples, each providing approximately 100 μg membrane protein. Sphingosine, psychosine, and lysosphingomyelin were added to each plasma membrane sample. […] Samples were analyzed for lysosphingolipid loading (i.e., membrane lysosphingolipid content following exposure to exogenous sphingolipid) by fluorescence tagging. […] Values are reported in pmoles lysosphingolipid/mg plasma membrane protein.

In the case of `CCCCCCCCCCCCC/C=C/[C@@H](O)[C@@H](N)COP(=O)([O-])OCC[N+](C)(C)C` [lysosphingomyelin, sphingosyl phosphoryicholine], the “diminution in Vmax” value [1] was 60%±10%, the “increase in calcium ion concentration required for optimal activity” value [1] was 5 fold and the “effect on KM for substrate phosphatidylinositol bis-phosphate” value (shortened to “effect on KM”) ([1]; 10 μM sphingosine) was “no change”. For the same compound, the InsP3 production ([2]; PC12 cells) was “strongly inhibit”, the “sensitivity of PC12 cells to bradykinin” value [2] was “can entirely block” and the “membrane lysosphingolipid content, 0 hours of incubation” value [3] was 5 ± 1 pmoles lysosphingolipid/mg pla. For the same compound, the “membrane lysosphingolipid content, 0.5 hours of incubation” value [3] was 65 ± 15 pmoles lysosphingolipid/mg pla, the “membrane lysosphingolipid content, 1.0 hours of incubation” value [3] was 110 ± 15 pmoles lysosphingolipid/mg pla and the “membrane lysosphingolipid content, 2.0 hours of incubation” value [3] was 120 ± 10 pmoles lysosphingolipid/mg pla. The “membrane lysosphingolipid content, 3.0 hours of incubation” value [3] was 145 ± 25 pmoles lysosphingolipid/mg pla.
With `CCCCCCCCCCCCC/C=C/[C@@H](O)[C@@H](N)CO[C@@H]1O[C@H](CO)[C@H](O)[C@H](O)[C@H]1O` [psychosine, lysocerebroside] the “diminution in Vmax” value [1] was 60%±10%, the “increase in calcium ion concentration required for optimal activity” value [1] was 5 fold and the “effect on KM” value ([1]; 10 μM sphingosine) was “no change”. For the same compound, the InsP3 production ([2]; PC12 cells) was “strongly inhibit”, the pIC50 ([2]; PC12 cells, 30 minutes exposure, 10 μM bradykinin, read-out: exogenous concentration reducing metabotropic response to bradykinin to half maximum) was 4.30 and the “sensitivity of PC12 cells to bradykinin” value [2] was “can entirely block”. The “membrane lysosphingolipid content, 0 hours of incubation” value [3] was 45 ± 5 pmoles lysosphingolipid/mg pla, the “membrane lysosphingolipid content, 0.5 hours of incubation” value [3] was 75 ± 20 pmoles lysosphingolipid/mg pla and the “membrane lysosphingolipid content, 1.0 hours of incubation” value [3] was 120 ± 15 pmoles lysosphingolipid/mg pla. The “membrane lysosphingolipid content, 2.0 hours of incubation” value [3] was 180 ± 15 pmoles lysosphingolipid/mg pla and the “membrane lysosphingolipid content, 3.0 hours of incubation” value [3] was 175 ± 20 pmoles lysosphingolipid/mg pla.
In the case of `CCCCCCCCCCCCC/C=C/[C@@H](O)[C@@H](N)CO` [sphingosine], the “calcium ion concentration required for optimal activity” value ([1]; 10 μM sphingosine) was “decrease”, the “effect on KM” value ([1]; 10 μM sphingosine) was “no effect” and the “basal, unstimulated level of InsP3 production” value ([2]; PC12 cells) was “tonically upregulated”. The “membrane lysosphingolipid content, 0 hours of incubation” value [3] was 105 ± 5 pmoles lysosphingolipid/mg pla, the “membrane lysosphingolipid content, 0.5 hours of incubation” value [3] was 113 ± 15 pmoles lysosphingolipid/mg pla and the “membrane lysosphingolipid content, 1.0 hours of incubation” value [3] was 140 ± 15 pmoles lysosphingolipid/mg pla. The “membrane lysosphingolipid content, 2.0 hours of incubation” value [3] was 165 ± 20 pmoles lysosphingolipid/mg pla and the “membrane lysosphingolipid content, 3.0 hours of incubation” value [3] was 175 ± 25 pmoles lysosphingolipid/mg pla.
